Experimental findings from PubChem BioAssay AID2305 (GlaxoSmithKline (GSK), 2010) are described below.

For orientation: IC50 means the concentration at which inhibition is half-maximal. Low readings indicate inhibition by little substance, high ones a need for much substance.

For the test, the system named is P. falciparum 3D7 growth, pLDH absorbance. As to the kind of experiment: P. falciparum 3D7 growth inhibition, dose response, strain 3D7 (AID 2305).

`O=c1cc(NCCCNC2CCOc3c(I)cc(Cl)cc32)[nH]c2ccccc12` (stereo not given) had an IC50 of 0.83 µM. As for `CN1CCCC(OC(=O)c2ccccc2)C1` (stereo not given), the figure is 0.76 µM; as for `CN1CCC(N(Cc2ccc(-c3ccc(C(F)(F)F)cc3)cc2)C(=O)Cn2cc(Cc3cnn(C)c3)c(=O)nc2SCc2cccc(F)c2F)CC1`, 0.93 µM; as for `CN(C)c1ccc(CN2CCC(CNC(=O)c3cc(-c4ccccc4F)cs3)C2)cc1` (stereo not given), 0.91 µM. As for `N#Cc1ccc(N2CCN(Cc3ccc(-c4cccc(-c5nc6ccccc6[nH]5)c4)cc3)CC2)nc1`, the figure is 0.91 µM; as for `CCC(C)(C)C1CCc2[nH]c3ccccc3c(=O)c2C1` (stereo not given), 0.38 µM. The result for `NC(=O)c1cccc(CN2Cc3ccccc3OC3(CCN(Cc4c[nH]c5cnccc45)CC3)C2)c1` reads 1.06 µM; that for `N#Cc1ccc2c(c1)CCN(CCC1CCC(NC(=O)Nc3ccncc3)CC1)C2` (stereo not given), 1.13 µM; that for `CN1CCN(Cc2ccc(-c3ccc4ncnc(Nc5ccc(OCc6ccccc6)cc5)c4c3)o2)CC1`, 0.69 µM.

The compound `C=CCNC(=O)C(C)c1ccc2cc(OC)ccc2c1` (stereo not given) gave a concentration for half-maximal inhibition (IC50) of 0.42 µM. As for `CC(C)Oc1cc2c(cc1NS(=O)(=O)c1ccc(-c3ccc(Cl)s3)cc1F)CCN(C)CC2`, the concentration for half-maximal inhibition (IC50) was determined as 0.71 µM. The result for `CCn1c(-c2nonc2N)nc2c(-c3ccc(CO)o3)ncc(OCCCN)c21` reads 1.36 µM.

For `Cc1ccc(N2CCN(C(=O)c3cccc(-c4cncc5nc(-c6ccco6)n(C)c45)c3)CC2)nc1`, the half-inhibitory concentration (IC50) came to 0.6 µM. The result for `CCOC(=O)c1c(C)noc1Nc1cccc(C)c1C` reads 0.42 µM. As for `Cc1ccc(C2CCN(CCCCNC(=O)c3ccc(NC(=O)c4ccc(Cl)cc4)cc3)CC2)c(OCC2CC2)c1`, the figure is 0.89 µM. As for `O=C(Nc1cccc([N+](=O)[O-])c1)N(Cc1ccc(Cl)c(Cl)c1)C1CCNCC1`, the figure is 0.72 µM. In turn, `CNCCCCCCc1ccc(CC(C)NCC(O)c2cccc(Cl)c2)cc1` (stereo not given) displayed a half-inhibitory concentration (IC50) of 0.85 µM. For the compound `Cc1ccc(NC(=O)NCCCCCN2CCC(c3c[nH]c4ccccc34)CC2)cc1I`, the concentration for half-maximal inhibition (IC50) is 0.81 µM. As for `O=C(COc1ccc(Cl)cc1)N1CCC(CN2CCC(c3c[nH]c4ccccc34)CC2)CC1`, the figure is 1.1 µM; as for `CCn1c(CN2CCC(C)CC2)nc2cc(NC(=O)c3cccs3)ccc21`, 0.56 µM; as for `Brc1ccccc1CNc1ccnc(NCCn2ccnc2)n1`, 0.9 µM. The result for `COc1ccc(Br)cc1C1[C@@H]2C(=O)N(c3ccc(Br)cc3)C(=O)[C@@H]2C2(C(=O)O)CC(OCc3ccccc3)CN12` (stereo not given in full) reads 0.19 µM; that for `Cc1nnsc1C(=O)Nc1cccc(-c2ccc(-c3nc4ccc(F)cc4[nH]3)cc2)c1`, 0.1 µM; that for `O=C(COc1ccc(F)cc1)NC1CCN(c2ccnc3cc(Cl)ccc23)C1` (stereo not given), 0.27 µM. The result for `N=c1c2c(n(Cc3cccc(Cl)c3)c3c1CCC3)CCCC2` reads 0.19 µM. The compound `CN(C)CCC1CCN(CCS(=O)(=O)c2cccc(Nc3ncc(-c4cccc(F)c4)cn3)c2)CC1` registered an IC50 of 1.06 µM.

`CCOc1ccc2nc(C)cc(NN=Cc3ccccc3)c2c1` displayed an IC50 of 0.78 µM. The result for `CCCC1N=C(N)N=C(N)N1c1cccc(C(F)(F)F)c1` (stereo not given) reads 0.59 µM; that for `O=C(/C=C/c1ccc(Cl)c(Cl)c1)NCCCCCN1CC[C@H](NC(=O)Nc2ccc(Oc3ccccc3)cc2)C1`, 0.7 µM. The result for `C=C[C@H]1CN(CCCCCCC)CC[C@H]1C[C@@H](Cc1ccnc2ccc(OC)cc12)OC(=O)[C@](OC)(c1ccccc1)C(F)(F)F` reads 0.88 µM. The result for `Cc1cccc2[nH]c(-c3ccc(-c4ccc(CN5CCCC5CN)cc4)cc3)nc12` (stereo not given) reads 0.81 µM; that for `O=C(/C=C/c1cccc(Cl)c1)NCCCCCN1CCC(c2c[nH]c3ccccc23)CC1`, 0.99 µM; that for `CCc1cc2c3c(N)nc(N)nc3ccc2n1C(CC)CC`, 0.06 µM. `COCCOc1cc(C)c(C2CCN(CCCCNC(=O)c3ccc(NC(=O)c4ccc(Cl)cc4)cc3)CC2)cc1C` had a half-inhibitory concentration (IC50) of 0.95 µM. The result for `COc1ccc(C(=O)NCc2ccc(N)nc2C)cc1Nc1ncc(-c2cccc(N(C)C)c2)cn1` reads 0.9 µM.
